The target in assay [1] is T1, GST-Shh (Homo sapiens, UniProt Q15465).
T1 construct: poly-histidine (N); made in house; host or cells: E. coli BL21(DE3), vector pET42b
Briefly: KD (nM). The source says:
Table printed on a drawing sheet, FIG. 9
Head of the field: KD (nM)
The patent's description of the figure: FIG. 9. Shh binding affinity of X5-X8-linked cyclic peptides.
First copying reader's note: The error (±) is printed in the same cell as the KD value.
Where the first naming reader finds the target: description_of_the_figure: direct binding of the selected FLAG tag-fused peptides to plate-immobilized GST-Shh
Target sequence in this assay (Q15465 24-197 limits assumed): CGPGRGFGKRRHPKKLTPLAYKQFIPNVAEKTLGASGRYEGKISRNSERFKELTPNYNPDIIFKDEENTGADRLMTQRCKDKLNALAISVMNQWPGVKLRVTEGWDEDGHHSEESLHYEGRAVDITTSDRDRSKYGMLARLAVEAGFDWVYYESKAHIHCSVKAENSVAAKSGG

Assay [2] addresses T1, GST-Shh. Briefly: Hh protein binding immunoassay: FLAG-tagged peptide on plate-immobilized GST-Shh, HRP-conjugated anti-FLAG antibody. The source says:
As for any peptide/protein interaction, various analytical and biophysical methods can be applied to test and assess the ability of the compounds provided herein to bind to Hedgehog proteins. These methods include, but are not limited to immunoassays (e.g., ELISA), radio(immune)assays, fluorescence-based assays, colorimetric assays, and/or techniques such as surface plasmon resonance (SPR), FRET, fluorescence polarization, isothermal calorimetry, NMR, and the like. A method that can be used is a solid phase immunoassay, in which the Hedgehog protein is immobilized on a plate or test tube and then incubated with the peptide at a fixed or variable concentration. In this assay, the peptide is functionalized with a label in the form of an antibody epitope (e.g., ‘FLAG tag’ peptide sequence) or an affinity tag molecule (e.g., biotin). After washing the unbound peptide, the Hedgehog-bound peptide is detected and quantified by means of a colorimetric assay using an enzyme-conjugated antibody (e.g., horseradish peroxidase-conjugated anti-FLAG antibody) or enzyme-conjugated capture protein (e.g., horseradish peroxidase-conjugated streptavidin). […]
To measure the binding affinity of the peptides for Shh, an in vitro assay was established in which recombinant GST-fused Shh is immobilized on microtiter plates and then exposed to the FLAG-tagged peptide at varying concentrations. The Shh-bound peptide is then quantified colorimetrically (λ450) using a horseradish peroxidase (HRP)-conjugated anti-FLAG antibody. […]
Hh protein binding assay. Shh binding activity/affinity of the linear and cyclic peptides was measured using the immunoassay outlined in FIG. 4. […] After washing, 100 μL of 2.2 mM o-phenylenediamine dihydrochloride, 4.2 mM urea hydrogen peroxide, 100 mM dibasic sodium phosphate and 50 mM sodium citrate, pH 5.0 was added to each well, followed by measurement of the absorbance at 450 nm using a Tecan Infinite 1000 plate reader. […]
Target sequence in this assay (Q15465 24-462): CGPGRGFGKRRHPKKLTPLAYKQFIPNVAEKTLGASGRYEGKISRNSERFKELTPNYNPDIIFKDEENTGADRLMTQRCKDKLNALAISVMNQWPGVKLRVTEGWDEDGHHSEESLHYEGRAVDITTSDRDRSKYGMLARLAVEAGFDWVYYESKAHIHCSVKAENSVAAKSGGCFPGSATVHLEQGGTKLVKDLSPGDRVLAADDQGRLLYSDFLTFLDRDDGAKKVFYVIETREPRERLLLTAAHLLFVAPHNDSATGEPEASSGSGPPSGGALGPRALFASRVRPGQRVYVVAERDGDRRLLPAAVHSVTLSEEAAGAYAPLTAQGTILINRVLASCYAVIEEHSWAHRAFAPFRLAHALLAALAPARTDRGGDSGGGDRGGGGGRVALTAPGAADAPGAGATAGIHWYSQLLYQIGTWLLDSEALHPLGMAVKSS

Assay [3] concerns Shh-mediated Hedgehog pathway signaling in NIH3T3 cells. Description: Gli-reporter dual luciferase assay in Shh-N-stimulated NIH-3T3 cells. Type of assay: cell-based, mouse. The source says: The ability of the compounds provided herein to inhibit ligand-induced activation of the Hedgehog pathway in a cell can be assessed by means of a cell based assay. In an exemplary procedure, a suitable reporter plasmid is introduced in a Hedgehog responsive mammalian cell. Typically, the reporter plasmid contains a reporter gene encoding (e.g., a gene encoding for firefly luciferase) under a Gli-controlled promoter, thereby providing a reporter gene that is responsive to the activity of the Gli transcription factors. […] The reporter cells are incubated with the Hedgehog protein in the presence and in the absence of the cyclic peptide. The extent of Hedgehog pathway suppression can be determined based on relative activity of the luciferase reporter enzyme, which in turn can be determined by measuring the luminescence signal after addition of a luminogenic substrate of the luciferase enzyme.
To this end, we utilized a cell-based luciferase reporter assay, (Chen, Taipale et al. 2002) in which mouse embryo fibroblasts (NIH3T3) are transfected with vectors encoding for a Firefly luciferase (FF) gene under a Gli-controlled promoter and a Renilla luciferase (Ren) gene under a constitutive promoter. Hedgehog pathway suppression is measured based on the decrease in Firefly/Renilla luminescence ratio in the presence of the inhibitor. […] (Chen, Taipale et al. 2002)
Gli-reporter Assay. NIH-3T3 cells were passaged twice and then plated in 24-well culture dishes at 5×10^5 cells/well in DMEM containing 10% FBS and 1% penicillin/streptomycin. After 24 hours, the cells were transfected (TransIT-2020) with a mixture of a firefly luciferase reporter construct under the control of a Gli1 inducible promoter and a Renilla luciferase reporter construct under a constitutive promoter (40:1) (Cignal GLI Reporter Luciferase Kit, Qiagen). Cells were allowed to reach confluency, at which point the media was changed to Opti-MEM containing 1% FBS and added with 4 nM Shh-N(R&D Systems, Minneapolis, Minn.) in sterile PBS buffer. Synthetic HL2-lin and HL2-m5 were added at the same time at varying concentration (0.01-30 uM), and control cells were prepared by adding vehicle only (1% DMSO). Purmorphamine-treated cells were prepared by adding 5 μM purmorphamine to wells containing 10 μM HL2-m5. After growth for 24 hours at 37° C. in a humidified chamber, the cells were harvested and analyzed for Firefly and Renilla luciferase activity using a Tecan Spark-20 plate reader and a DLR kit (Promega) according to the manufacturer's instructions. Luminescence values were normalized to those of the Shh pathway activated control cells. Mean values and standard deviations were calculated from experiments performed at least in duplicate.

Assay [4] has as its system GST-Shh, GST-Ihh, and GST-Dhh. Description: Hedgehog analog selectivity: relative binding at fixed peptide concentration. Also noted: species or system human. The settings on record: peptide at fixed concentration of 0.5-1 μM, normalized to highest response. The method, then: FIG. 14. Hh analog selectivity for linear HHIP L2-derived peptide (HL2-pep) and representative cyclic peptide inhibitors. The data relative to the peptides were derived from direct binding experiments with immobilized Hedgehog proteins (i.e., GST-Shh, GST-Ihh, and GST-Dhh), biotinylated peptides (i.e., Biot-HL2-pep, Biot-HL2-m1, Biot-HL2-m2, Biot-HL2-m3, Biot-HL2-m4, Biot-HL2-m4), and HRP-conjugated streptavidin. The data relative to robotnikinin were derived from competition experiments ([…]+400 nM HL2-m5). For each compound, the response values were normalized to the highest binding response measured across the three Hedgehog analogs.
Hedgehog analog selectivity. KD values for FLAG-HL2-m5 binding to Ihh and Dhh were determined using the colorimetric immunoassay described earlier but using GST-Ihh and GST-Dhh-coated plates, respectively. The peptide relative binding affinity for the three isoforms of Hedgehog was determined using the same assay and peptide solutions at a fixed concentration of 0.5-1 μM. In this case, binding responses were subtracted against the blank (no peptide sample) and normalized to the highest value measured across the three Hh isoforms. Mean values and standard deviations were calculated from experiments performed at least in triplicate.

Entries after “also recorded” stand apart in the source; their conditions may differ. *1 amine or outer side, *2 acyl side, *3 side chain or, on linkers, in order; H or OH if unused. Where a SMILES comes first, the peptide text is derived from it. Bridges are numbered along the chain shown (N, C = ends). CH2CH2 = C(C[*:2])[*:1]

With `CSCC[C@H](N)C(=O)N[C@@H](CC(=O)O)C(=O)N[C@@H](Cc1ccc(O)cc1)C(=O)N[C@@H](CCCCN)C(=O)N[C@@H](CC(=O)O)C(=O)N[C@@H](CC(=O)O)C(=O)N[C@@H](CC(=O)O)C(=O)N[C@@H](CC(=O)O)C(=O)N[C@@H](CCCCN)C(=O)NCC(=O)N[C@@H](CO)C(=O)NCC(=O)N[C@@H](CO)C(=O)N[C@H](C(=O)N[C@H](C(=O)N[C@@H](CO)C(=O)N[C@@H](CC(=O)O)C(=O)NCC(=O)N[C@@H](CCC(=O)O)C(=O)N[C@@H](CCC(=O)O)C(=O)N[C@H]1Cc2ccc(cc2)OCCSC[C@@H](C(=O)N[C@@H](CC(C)C)C(=O)N[C@@H](CC(=O)O)C(=O)O)NC(=O)CNC(=O)[C@H](CC(=O)O)NC1=O)C(C)C)[C@@H](C)O` [FLAG-HL2-2m1.1] (H-MDYKDDDDKGSGSTVSDGEEYDGCLD-OH; linker 21-24 via CH2CH2; N-terminus assumed), binding at GST-Shh [1] was characterised by a dissociation constant (Kd) of 560 ± 5 nM. Same read-out and setting: in the case of `CSCC[C@H](N)C(=O)N[C@@H](CC(=O)O)C(=O)N[C@@H](Cc1ccc(O)cc1)C(=O)N[C@@H](CCCCN)C(=O)N[C@@H](CC(=O)O)C(=O)N[C@@H](CC(=O)O)C(=O)N[C@@H](CC(=O)O)C(=O)N[C@@H](CC(=O)O)C(=O)N[C@@H](CCCCN)C(=O)NCC(=O)N[C@@H](CO)C(=O)NCC(=O)N[C@@H](CO)C(=O)N[C@H](C(=O)N[C@@H](CCCNC(=N)N)C(=O)NCC(=O)N[C@@H](CC(=O)O)C(=O)NCC(=O)N[C@@H](CCC(=O)O)C(=O)N[C@@H](CCC(=O)O)C(=O)N[C@H]1Cc2ccc(cc2)OCCSC[C@@H](C(=O)N[C@H](C(=O)N[C@@H](CC(=O)O)C(=O)O)C(C)C)NC(=O)CNC(=O)[C@H](CC(=O)O)NC1=O)[C@@H](C)O` [FLAG-HL2-2m1.2] (H-MDYKDDDDKGSGSTRGDGEEYDGCVD-OH; linker 21-24 via CH2CH2; N-terminus assumed) it was 850 ± 20 nM. Turning to `CSCC[C@@H]1NC(=O)[C@H](CCC(=O)O)NC(=O)[C@H](CCC(=O)O)NC(=O)[C@@H](NC(=O)[C@H](CC(=O)O)NC(=O)[C@H](CC(=O)O)NC(=O)[C@H](CC(C)C)NC(=O)[C@@H](NC(=O)[C@H](CO)NC(=O)CNC(=O)[C@H](CO)NC(=O)CNC(=O)[C@H](CCCCN)NC(=O)[C@H](CC(=O)O)NC(=O)[C@H](CC(=O)O)NC(=O)[C@H](CC(=O)O)NC(=O)[C@H](CC(=O)O)NC(=O)[C@H](CCCCN)NC(=O)[C@H](Cc2ccc(O)cc2)NC(=O)[C@H](CC(=O)O)NC(=O)[C@@H](N)CCSC)[C@@H](C)O)Cc2ccc(cc2)OCCSC[C@@H](C(=O)N[C@@H](CO)C(=O)N[C@@H](CC(=O)O)C(=O)O)NC(=O)CNC(=O)[C@H](CC(=O)O)NC1=O` [FLAG-HL2-m1] (H-MDYKDDDDKGSGSTLDDYEEMDGCSD-OH; linker 18-24 via CH2CH2; N-terminus assumed), the “increase in Shh binding affinity compared to FLAG-HL2-m1” value at GST-Shh [2] (ratio of KD values) is on record as 11 fold. For the molecule `CSCC[C@@H]1NC(=O)[C@H](C)NC(=O)[C@H](CCC(=O)O)NC(=O)[C@@H](NC(=O)[C@H](Cc2c[nH]c3ccccc23)NC(=O)[C@H](CO)NC(=O)[C@H](CC(C)C)NC(=O)[C@@H](NC(=O)[C@H](CO)NC(=O)CNC(=O)[C@H](CO)NC(=O)CNC(=O)[C@H](CCCCN)NC(=O)[C@H](CC(=O)O)NC(=O)[C@H](CC(=O)O)NC(=O)[C@H](CC(=O)O)NC(=O)[C@H](CC(=O)O)NC(=O)[C@H](CCCCN)NC(=O)[C@H](Cc2ccc(O)cc2)NC(=O)[C@H](CC(=O)O)NC(=O)[C@@H](N)CCSC)[C@@H](C)O)Cc2ccc(cc2)OCCSC[C@@H](C(=O)N[C@H](C(=O)N[C@@H](CC(=O)O)C(=O)O)[C@@H](C)O)NC(=O)[C@H](CCSC)NC(=O)[C@H](CC(=O)O)NC1=O` [FLAG-HL2-m5] (H-MDYKDDDDKGSGSTLSWYEAMDMCTD-OH; linker 18-24 via CH2CH2), binding on GST-Shh [2] was put at a Kd of 170 nM. Also, the “higher binding affinity for Shh compared to the linear L2-derived peptide (FLAG-HL2-pep)” value on GST-Shh [2] (ratio of KD values) is ~120 fold. `CC1=C2C[C@H]3[C@@H](CC=C4C[C@@H](O)CC[C@@]43C)[C@@H]2CC[C@]12O[C@@H]1C[C@H](C)CN[C@H]1[C@H]2C` [cyclopamine]: the “inhibition of Shh-induced luminescence” value in assay [3] (concentration of 10 μM) is on record as “full inhibition”. For `c1ccc2c(Oc3nc(Nc4ccc(N5CCOCC5)cc4)c4ncn(C5CCCCC5)c4n3)cccc2c1` [purmorphamine], in assay [3] (5 μM purmorphamine added to 10 μM HL2-m5), the “effect of Smo agonist on pathway signaling in HL-m5-treated cells” value is given as “restored activation of the signaling pathway”. Consider “HL2-pep: linear peptide derived from the HHIP L2 loop (TLDDMEEMDGLSD)”, for which, in assay [4], the “Hedgehog analog selectivity profile” value is “Dhh>Shh≈Ihh”. The “inhibitory activity on Hedgehog pathway signaling (in words)” value in assay [3] (concentrations up to 30 μM, Shh-N-stimulated cells) was “no inhibitory activity; also recorded: unable to suppress signaling”.

For the origin of these results see patent US20210115087A1, “CYCLIC PEPTIDE INHIBITORS OF HEDGEHOG PROTEINS” (University of Rochester, priority 2016, published 2021).
